Source: article doi:10.1101/2024.02.15.580468v1, “Morphing Cholinesterase Inhibitor Amiridine into Multipotent Drugs for the Treatment of Alzheimer’s Disease” (biorxiv, 2024)
Read-outs that look alike come from different tables or passages of the source.

Experiments:
[1] = molecular target: T1, recombinant human GluN1/GluN2B NMDA receptor (GluN1-4a/GluN2B) (Homo sapiens, UniProt Q05586+Q13224); experiment: whole-cell patch clamp, HEK293; type: cell-based; conditions: -60 mV, 1 mM L-glutamate, 100 µM glycine, pH 7.3, steady state; voltage-dependent
T1 construct: gene GRIN1; GluN1-4a and GluN2B co-expressed with GFP in HEK293 cells
Source text: whole-cell patch clamp, HEK293 on recombinant human GluN1/GluN2B NMDA receptor (GluN1-4a/GluN2B)

[2] = molecular target: T2, hAChE (human recombinant acetylcholinesterase) (Homo sapiens, UniProt P22303); experiment: biochemical; set-up: modified Ellman assay, cholinesterase activity, absorbance at 412 nm
T2 construct: gene ACHE; recombinant enzyme, purchased from Sigma-Aldrich
Experimental: (§1) The inhibitory activities of 5–7 and all the reference compounds were determined using modified Ellman’s method against human recombinant AChE (hAChE, E.C. 3.1.1.7, purchased from Sigma-Aldrich, Prague, Czech Republic) and human plasmatic BChE (hBChE, E.C. 3.1.1.8, purchased from Sigma-Aldrich, Prague, Czech Republic). The results are expressed as IC50 (the concentration of the compound that is required to reduce 50% of cholinesterase activity). Other used compounds – phosphate buffer solution (PBS, pH = 7.4), 5,5’-dithio-bis(2-nitrobenzoic) acid (Ellman’s reagent, DTNB), acetylthiocholine (ATCh) and butyrylthiocholine (BTCh) were also commercially available and were purchased from Sigma-Aldrich (Prague, Czech Republic). During the measurement, 96-well microplates from polystyrene (ThermoFisher Scientific, Waltham, MA, USA) were used. The solutions of corresponding enzyme in PBS were prepared up to final activity 0.002 U/µL. The assay medium (100 µL) consisted of cholinesterase (10 µL), DTNB (20 µL of 0.01 M solution) and PBS (40 µL of 0.1 M solution). The solutions of the tested compounds (10 µL of different concentrations) were pre- incubated for 5 minutes in the assay medium and then solution of substrate (20 µL of 0.01 M ATCh or BTCh iodide solution) was added to initiate the reaction. The increase of absorbance was measured at 412 nm using Multimode microplate reader Synergy 2 (BioTek Inc., Winooski, VT, USA). For the calculation of the resulting measured activity (the percentage of inhibition I) following formula was used: [drawing 1] where ΔAi indicates absorbance change provided by adequate enzyme exposed to corresponding inhibitor and ΔA0 indicates absorbance change when a solution of PBS was added instead of a solution of inhibitor. Software Microsoft Excel (Redmont, WA, USA) and GraphPad Prism version 5.02 for Windows (GraphPad Software, San Diego, CA, USA) were used for the statistical data evaluation. ChEs are enzymes responsible for the hydrolysis and metabolism of various endogenous and exogenous substrates, that are broadly studied in association with disease conditions like myasthenia gravis or AD. The primary attention in the development of AD drugs has been paid to AChE inhibitors. Nevertheless, there is growing interest in nonselective or BChE-selective inhibitors due to the compensatory role of BChE when AChE levels are depleted during the progression of AD [23]. Selective BChE inhibitors may be beneficial for patients in moderate-to-severe stages of AD [23, 24]. […] Accordingly, we assessed the inhibition activities of these novel compounds against human recombinant AChE (hAChE) and human serum BChE (hBChE) following a modified spectrophotometric protocol developed by Ellman et al.. […] Complete data are available in the Supplementary Information (Table S1), including the inhibition percentages for all derivatives. Amiridine hydrochloride (amiridine.HCl) and tacrine (THA) were used as reference compounds. […] Only a superficial structure-activity relationship for AChE inhibition can be drawn from the obtained data. […] The presence of any substituent on the benzothiazole core enhanced anti-AChE activity, with the best-tolerated position for the substituent being 6 for derivatives with halogen atoms (7b-d with bromine or 7g-h with [compound left out]. h

[3] = molecular target: T3, hBChE (human serum / plasmatic butyrylcholinesterase) (Homo sapiens, UniProt P06276); experiment: biochemical; set-up: modified Ellman assay, cholinesterase activity, absorbance at 412 nm
T3 construct: gene BCHE; native enzyme from human plasma/serum, purchased from Sigma-Aldrich
Experimental: as §1

[4] = in vitro; set-up: MTT viability assay, undifferentiated SH-SY5Y cells; conditions: human, undifferentiated sh-sy5y cells, read-out: SH-SY5Y IC50
Experimental: (§2) The cytotoxic profile of 5–7 was carried through the use of the MTT (3-(4,5-dimethylthiazol-2-yl)-2,5-diphenyltetrazolium bromide) assay on human neuroblastoma (SH-SY5Y) and hepatocellular carcinoma (HepG2) cell lines, following established protocols. The cytotoxicity was assessed on SH-SY5Y cells in undifferentiated and in differentiated form. The data obtained from the measurements on the undifferentiated SH-SY5Y and HepG2 cells are summarized in Table 1 for 5c-d, 7c and 7g, as well as for the reference compounds amiridine hydrochloride and THA. Additional data can be found in Supplementary Information (Table S2 and Fig. S1). The both cell lines were cultured according to ECACC recommended conditions and seeded into 96-well plates in 100 µL and density of 8000 per well. For evaluation of cytotoxicity of the differentiated form the SH-SY5Y cells also underwent 9-day differentiation protocol into mature neurons according to Riegerová et al .. The tested compounds were dissolved in DMSO (Sigma Aldrich) or in phosphate buffer saline (PBS, Sigma Aldrich) and subsequently in the growth medium - high glucose Dulbecco’s Modified Eagle’s medium (DMEM; Sigma-Aldrich, D6429). […] Then, the differentiated SH-SY5Y cells were treated with concentrations corresponding to IC50 values obtained from the cytotoxicity measurement using undifferentiated SH-SY5Y cells. Cells were exposed to a tested compound for 24 h. Then the medium was replaced by a medium containing 10 μM of MTT and cells were allowed to produce formazan for another approximately 3 h under surveillance. Thereafter, medium was aspirated and purple crystals of MTT formazan were dissolved in 100 μL DMSO under shaking. Cell viability was assessed spectrophotometrically by the amount of formazan produced. Absorbance was measured at 570 nm with 650 nm reference wavelength on Spark (Tecan Group Ltd, Switzerland). The IC50 value was then calculated from the control-subtracted triplicates using non-linear regression (four parameters) of GraphPad Prism 9 software. Final IC50 and SEM values were obtained as a mean of three independent measurements.

[5] = in vitro; set-up: MTT viability assay, HepG2 cells; conditions: human, hepg2 cells; read-out: HepG2 IC50
Experimental: as §2

[6] = in vitro; set-up: PAMPA blood-brain barrier permeability, effective permeability Pe; conditions: PAMPA-BBB Pe
Source text: page 5 / Table S2. Cytotoxicity profiles of 5–7 on SH-SY5Y cell line and predictions to BBB penetration by PAMPA results. / Pe (10^-6 cm.s^-1)

[7] = molecular target: T3, hBChE (human serum / plasmatic butyrylcholinesterase); experiment: modified Ellman assay, […] nm; type: biochemical
[8] = in vitro; set-up: PAMPA blood-brain barrier permeability, effective permeability Pe; conditions: PAMPA-BBB Pe; remark: listed apart in the source
Source text: page 4 / Table S1. Inhibition activities of 5–7 and reference compounds (amiridine hydrochloride and THA). hAChE ± SEM^a hBChE ± SEM^a / Pe (10^-6 cm.s^-1)

T2 sequence (P22303 32-614): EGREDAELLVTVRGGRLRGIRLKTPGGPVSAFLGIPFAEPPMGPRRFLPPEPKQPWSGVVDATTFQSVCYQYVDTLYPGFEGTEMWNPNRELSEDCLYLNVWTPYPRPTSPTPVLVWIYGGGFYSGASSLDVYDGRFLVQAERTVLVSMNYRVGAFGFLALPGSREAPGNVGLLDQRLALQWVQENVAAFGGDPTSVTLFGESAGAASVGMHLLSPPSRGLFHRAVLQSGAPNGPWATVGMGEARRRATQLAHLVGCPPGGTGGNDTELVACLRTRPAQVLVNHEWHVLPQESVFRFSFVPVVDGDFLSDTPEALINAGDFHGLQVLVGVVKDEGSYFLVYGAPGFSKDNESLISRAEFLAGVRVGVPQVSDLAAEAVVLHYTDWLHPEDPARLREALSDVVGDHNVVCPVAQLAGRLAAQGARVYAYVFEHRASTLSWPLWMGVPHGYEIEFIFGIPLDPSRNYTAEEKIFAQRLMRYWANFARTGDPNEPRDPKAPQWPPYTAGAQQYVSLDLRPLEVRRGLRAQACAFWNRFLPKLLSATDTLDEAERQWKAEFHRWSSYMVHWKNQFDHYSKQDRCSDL
T3 sequence (P06276 29-602): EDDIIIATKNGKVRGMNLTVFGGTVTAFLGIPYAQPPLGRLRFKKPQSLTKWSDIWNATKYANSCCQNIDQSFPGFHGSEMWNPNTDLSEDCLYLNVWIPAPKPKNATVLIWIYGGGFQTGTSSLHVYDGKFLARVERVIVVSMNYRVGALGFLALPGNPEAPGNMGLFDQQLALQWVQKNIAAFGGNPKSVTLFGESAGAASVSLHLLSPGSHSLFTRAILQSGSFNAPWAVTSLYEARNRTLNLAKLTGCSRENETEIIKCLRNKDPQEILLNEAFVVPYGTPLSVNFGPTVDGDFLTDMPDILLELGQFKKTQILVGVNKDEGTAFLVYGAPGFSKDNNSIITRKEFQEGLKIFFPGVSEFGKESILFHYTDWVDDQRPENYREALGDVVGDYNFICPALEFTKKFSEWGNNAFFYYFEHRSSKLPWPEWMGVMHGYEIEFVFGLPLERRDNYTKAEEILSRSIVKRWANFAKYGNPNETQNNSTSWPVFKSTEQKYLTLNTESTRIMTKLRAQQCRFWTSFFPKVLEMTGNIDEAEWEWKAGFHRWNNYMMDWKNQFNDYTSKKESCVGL
T1 sequence (Q13224 27-1484, other chains not shown): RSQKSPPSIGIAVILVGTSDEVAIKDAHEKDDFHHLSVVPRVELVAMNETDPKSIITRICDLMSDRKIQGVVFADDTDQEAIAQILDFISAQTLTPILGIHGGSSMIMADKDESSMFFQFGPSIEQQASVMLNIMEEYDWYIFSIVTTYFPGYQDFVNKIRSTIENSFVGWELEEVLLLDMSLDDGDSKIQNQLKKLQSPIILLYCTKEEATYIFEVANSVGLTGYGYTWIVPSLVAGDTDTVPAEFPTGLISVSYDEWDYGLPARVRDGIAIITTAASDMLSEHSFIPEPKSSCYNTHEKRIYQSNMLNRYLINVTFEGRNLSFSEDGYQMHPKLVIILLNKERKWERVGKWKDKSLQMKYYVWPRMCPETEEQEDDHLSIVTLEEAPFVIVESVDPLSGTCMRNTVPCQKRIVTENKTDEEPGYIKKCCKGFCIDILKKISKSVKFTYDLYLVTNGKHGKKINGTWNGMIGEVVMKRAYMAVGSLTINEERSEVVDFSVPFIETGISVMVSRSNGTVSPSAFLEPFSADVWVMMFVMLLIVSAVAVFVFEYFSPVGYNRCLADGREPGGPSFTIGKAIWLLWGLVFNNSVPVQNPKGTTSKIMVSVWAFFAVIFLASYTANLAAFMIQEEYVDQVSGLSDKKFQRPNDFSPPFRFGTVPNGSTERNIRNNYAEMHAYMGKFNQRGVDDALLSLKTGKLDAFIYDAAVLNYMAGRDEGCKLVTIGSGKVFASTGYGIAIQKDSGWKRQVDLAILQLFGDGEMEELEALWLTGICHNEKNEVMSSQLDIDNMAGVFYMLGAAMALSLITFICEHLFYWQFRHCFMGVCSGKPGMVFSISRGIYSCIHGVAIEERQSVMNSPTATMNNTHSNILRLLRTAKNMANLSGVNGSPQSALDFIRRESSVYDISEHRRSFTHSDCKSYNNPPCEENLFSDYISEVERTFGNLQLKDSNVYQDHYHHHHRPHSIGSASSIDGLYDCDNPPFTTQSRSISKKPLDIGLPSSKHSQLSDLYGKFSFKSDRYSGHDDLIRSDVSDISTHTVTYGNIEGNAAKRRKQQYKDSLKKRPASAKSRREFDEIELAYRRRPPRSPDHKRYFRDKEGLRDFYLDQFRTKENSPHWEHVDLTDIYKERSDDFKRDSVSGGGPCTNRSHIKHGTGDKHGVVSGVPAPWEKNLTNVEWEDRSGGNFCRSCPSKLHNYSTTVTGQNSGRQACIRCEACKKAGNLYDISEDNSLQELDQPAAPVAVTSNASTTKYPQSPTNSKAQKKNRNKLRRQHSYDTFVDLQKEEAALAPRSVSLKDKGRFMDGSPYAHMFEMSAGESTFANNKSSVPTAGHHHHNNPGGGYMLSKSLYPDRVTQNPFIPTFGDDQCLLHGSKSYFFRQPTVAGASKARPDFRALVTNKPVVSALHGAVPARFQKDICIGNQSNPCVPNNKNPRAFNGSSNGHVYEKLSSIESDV

With `O=C(CNc1nc2ccc(OC(F)(F)F)cc2s1)Nc1c2c(nc3c1CCC3)CCCC2` [7m, N-{1H,2H,3H,5H,6H,7H,8H-cyclopenta[b]quinolin-9-yl}-2-{[6-(trifluoromethoxy)-1,3-benzothiazol-2-yl]amino}acetamide] the “RI (% inhibition at 30 μM)” value [1] was 63.0 ± 2.6%, the inhibition at 1 µM [2] was 13.3 ± 0.71% and the inhibition at 1 µM [3] was 1.5 ± 0.64%. For the same molecule, the CC50 at 24 h [4] was 29.5 ± 2.3 µM, the CC50 at 24 h [5] was at least 200 µM and the Papp [6] was 2.54 ± 0.42 ×10⁻⁶ cm/s.
Molecule `O=C(CNc1nc2cc(Br)ccc2s1)Nc1c2c(nc3c1CCC3)CCCC2` [7c, 2-[(5-bromo-1,3-benzothiazol-2-yl)amino]-N-{1H,2H,3H,5H,6H,7H,8H-cyclopenta[b]quinolin-9-yl}acetamide] has an IC50 [7] of 4.9 ± 0.4 µM, an inhibition at 1 µM [2] of 15.7 ± 1.17% and an inhibition at 1 µM [3] of 25 ± 2.39%. The CC50 at 24 h [4] was 17.7 ± 2.34 µM, the CC50 at 24 h [5] was 21.61 ± 0.21 µM and the Papp [6] was 2.13 ± 1.04 ×10⁻⁶ cm/s.
Work on `O=C(CNC12CC3CC(CC(C3)C1)C2)Nc1c2c(nc3c1CCC3)CCCC2` [5a] yielded an inhibition at 1 µM [2] of 2.83 ± 0.49%, an inhibition at 1 µM [3] of 14 ± 1.75% and a CC50 at 24 h [4] of 74 ± 2.8 µM. For the same molecule, the CC50 at 24 h [5] was 67.9 ± 1.12 µM and the Papp [8] was 23.4 ± 1.86 ×10⁻⁶ cm/s.
